Test results from patent publication US10717733B2, “Haloallylamine indole and azaindole derivative inhibitors of lysyl oxidases and uses thereof” (PHARMAXIS LTD., priority 2016, dated 2020).
pIC50: −log10 of the molar value. Where a name gives a salt, the structure may show the parent alone.

Legend:
[1] = biological target: Bovine LOX (Bos taurus (Bovine), UniProt P33072); assay: LOX inhibition, peroxidase-coupled Amplex Red amine oxidase assay; type: biochemical; details: 30 min preincubation at 37° C., putrescine substrate
Bovine LOX, sequence (P33072 170-418): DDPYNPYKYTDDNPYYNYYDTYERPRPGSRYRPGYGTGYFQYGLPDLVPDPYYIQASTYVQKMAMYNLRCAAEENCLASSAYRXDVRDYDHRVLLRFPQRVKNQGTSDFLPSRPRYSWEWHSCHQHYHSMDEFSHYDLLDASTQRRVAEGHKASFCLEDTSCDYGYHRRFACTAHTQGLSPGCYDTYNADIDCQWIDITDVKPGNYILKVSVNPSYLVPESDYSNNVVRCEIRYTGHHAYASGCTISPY
Summary of the method: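 Bovine LOX in 1.2 M urea, 50 mM sodium borate pH 8.2 with 1 μM mofegiline and 0.5 mM pargyline; putrescine at twice KM (e.g. 20 mM for LOX) with Amplex Red/HRP. Fluorescence (ex 565/em 590 nm) read kinetically over 30 min at 37–45 °C; IC50 from slopes.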

[2] = test system: STAM mice, NASH liver fibrosis; assay: Streptozotocin and high fat diet induced liver fibrosis (STAM model); type: in vivo, mouse; details: daily oral gavage 10-30 mg/kg, FIG. 6
Procedure: High fat/carbohydrate diet induced liver fibrosis is the most common reason for liver dysfunction and ultimately liver failure. NASH is induced in male mice by a single subcutaneous injection of 200 μg streptozotocin solution 2 days after birth and feeding with high fat diet after 4 weeks of age (STAM™ model).
LOXL2 inhibitor compound 112 was administered by daily oral gavage at doses between 10-30 mg/kg 8 weeks after streptozotocin application. Mice were sacrificed after NASH had been established and whole blood samples were taken via cardiac puncture. Liver samples were collected and washed with cold saline. Liver weight was measured. The left lateral, right and caudate lobes of livers were snap frozen in liquid nitrogen and stored at −80° C. For HE staining, sections were cut from paraffin blocks of liver tissue prefixed in Bouin's solution and stained with Lillie-Mayer's Hematoxylin and eosin solution. NAFLD Activity score (NAS) was calculated according to the criteria of Kleiner (Kleiner D E. et al., Design and validation of a histological scoring system for nonalcoholic fatty liver disease. Hepatology, 2005; 41:1313). To visualize collagen deposition, Bouin's fixed liver sections were stained using picro-Sirius red solution and the area of fibrosis was quantified (See FIG. 6).

[3] = test system: primary fibroblasts from confirmed cases of IPF; assay: Collagen cross-link formation in in vitro fibroblastic foci model of IPF; type: cell-based, human; details: TGF-β1 stimulated foci, six weeks culture, FIGS. 7a and 7b
Source text: The lung tissue of patients with idiopathic pulmonary fibrosis (IPF) is characterised by dense collections of myofibroblasts and extracellular matrix (ECM) termed ‘fibroblastic foci’. Using a novel in vitro model of fibroblastic foci (Jones et al., AJRCCM 191; 2015:A4912) the formation of lysyl oxidase (LOX) mediated collagen cross-links and the effects of the nonselective LOX inhibitor β-aminopropionitrile (BAPN) as well lysyl oxidase like-2 (LOXL2)-selective inhibitors were investigated.
Cultures of primary fibroblasts were grown out from clinical diagnostic biopsies of fibrotic lung and stored in liquid nitrogen. […]
To quantify collagen cross-links (Robins Biochem Soc Trans 2007; 35(5): 849-852; Saito et al Anal. Biochem. 1997; 253: 26-32; Sims, Avery & Bailey Methods in Molecular Biology 2000; vol 139: 11-26), cultures were treated with potassium borohydride to stabilise the reducible immature cross-links, and hydrolysed in 6N HCl at 100° C. for 16 hr. Total collagen content was assessed by hydroxyproline assay. Immature cross-links were assessed by LC/MS/MS and mature pyridinoline cross-links by ELISA. Cross-link data is expressed as moles of cross-link per mole collagen.

[4] = test system: myocardial infarction induced fibrosis; assay: Myocardial infarction induced fibrosis (carotic ligation) model; type: in vivo, mouse; details: mice, 0.1-100 mg/Kg once a day oral gavage, FIG. 5
Source text: Carotic ligation is a widely accepted experimental model to induce cardiac fibrosis and to determine the anti-fibrotic activity of therapeutic agents.
In mice, the chest is opened via a left thoracotomy. The left coronary artery is identified visually using a stereo microscope, and a 7-0 suture is placed around the artery 1-2 mm below the left auricle. Permanent occlusion of the left coronary artery resulted from its ligation with the suture. Myocardial ischemia was confirmed by pallor in heart color and ST-segment elevation. (see Parajuli et al. Phosphatase PTEN is critically involved in post-myocardial infarction remodeling through the Akt/interleukin-10 signaling pathway Basic Res Cardiol (2012) 107:248).
Mice were subjected to sham or carotic ligation surgery. At 24 hrs post-surgery, echocardiography was performed on the mice. Mice were treated with compound 25 0.1-100 mg/Kg once a day for 21 (7 days after carotic ligation) or 28 days or saline as vehicle controls by oral gavage. At the end of the experiment, echocardiography was repeated to assess left ventricular function and remodeling. Then mice were euthanized for heart collection. Each heart was photographed and fixed with 10% formalin. Hearts were sectioned for Masson's trichrome stain to measure fibrosis (See FIG. 5).

Row | SMILES | pIC50 [1] | liver fibrosis (picro-Sirius red area of fibrosis) [2] | collagen cross-link formation (immature and mature cross-links) [3] | fibrosis after carotic ligation (Masson's trichrome stain) [4]
1 | CCOC(=O)c1ccc2c(c1)c(-c1cccc(S(=O)(=O)N(C)C)c1)c(C)n2C/C(F)=C/CN [Compound 12, (Z)-ethyl 1-(4-amino-2-fluorobut-2-en-1-yl)-3-(3-(N,N-dimethylsulfamoyl)phenyl)-2-methyl-1H-indole-5-carboxylate] | < 6.52 |  |  | 
2 | Cc1ccc2c(n1)c(-c1cccc(S(C)(=O)=O)c1)c(C)n2C/C(F)=C/CN [Compound 112, (Z)-4-(2,5-dimethyl-3-(3-(methylsulfonyl)phenyl)-1H-pyrrolo[3,2-b]pyridin-1-yl)-3-fluorobut-2-en-1-amine Dihydrochloride] | < 6.52 | reduce lilver fibrosis | reduced cross-link formation in a concentration dependent manner | 
3 | Cc1c(-c2cccc(S(=O)(=O)N(C)C)c2)c2ncccc2n1C/C(F)=C/CN [Compound 25, (Z)-3-(1-(4-amino-2-fluorobut-2-en-1-yl)-2-methyl-1H-pyrrolo[3,2-b]pyridin-3-yl)-N,N-dimethylbenzenesulfonamide Dihydrochloride] | < 6.52 |  |  | reduce fibrosis
